Assay [1] deals with Dual specificity protein kinase CLK1 (Homo sapiens, UniProt P49759). Briefly: CLK1 kinase inhibitors, off-target check, dose response, selectivity assay for Dyrk1A inhibitor project, biochemical, cherry-picked samples (AID 588811).
Assay [2] concerns the target Glycogen synthase kinase-3 beta (Homo sapiens, UniProt P49841). Briefly: GSK3beta kinase inhibitors, dose response, biochemical, microfluidics, dry powder samples, set 2 (AID 623989). Format: functional.
Assay [3] can be described thus: HeLa cell cytotoxicity, dose response, cytotoxicity control for MgcRacGAP inhibitor project (AID 624300). In kind it is functional.
For a further assay, the system named is HeLa. Briefly: HeLa cell cytotoxicity, dose response, cytotoxicity control for MITF activator project, CellTiter-Glo luminescence, cherry-pick samples (AID 540259). Format: functional, cell-based. The following applies: Homo sapiens.
The target in assay [4] is Glycogen synthase kinase-3 alpha (Homo sapiens, UniProt P49840). Briefly: human GSK3 alpha kinase inhibition, dose response, selectivity assay for GSK3beta inhibitor project, biochemical, microfluidics, dry powder samples, set 2 (AID 623978). Format: functional.
Assay [5] is described as follows: Luminescence Cell-Based Dose Retest to Confirm Inhibitors of Cancer Stem Cells. [Related pubchem assays (depositor defined):AID2717, AID2721]. Format: functional. The conditions noted are these: Homo sapiens.
Assay [6] concerns the target Dual specificity tyrosine-phosphorylation-regulated kinase 1A (Rattus norvegicus, UniProt Q63470). Format: biochemical, Homo sapiens.
The nature of assay [7]: cytotoxicity in HMLE control line with eGFP shRNA, dose response, counter-screen for HMLE_sh_ECad selective toxicity project, cell-based, HMLE_sh_eGFP, luminescence (AID 463074).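 Note: HMLE human mammary epithelial cells expressing control shRNA against eGFP.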 In kind it is functional, Homo sapiens.
Assay [8] has as its target Cyclin-dependent kinase 5/CDK5 activator 1 (Homo sapiens, UniProt Q00535). Briefly: CDK5-p25 kinase inhibition, dose response, selectivity assay for GSK3beta inhibitor project, biochemical, microfluidic mobility shift, dry powder, set 2 (AID 623979). In kind it is functional.
Assay [9] has as its target T1, Rac GTPase-activating protein 1 (Homo sapiens, UniProt Q9H0H5).
T1 sequence (Q9H0H5 whole entry): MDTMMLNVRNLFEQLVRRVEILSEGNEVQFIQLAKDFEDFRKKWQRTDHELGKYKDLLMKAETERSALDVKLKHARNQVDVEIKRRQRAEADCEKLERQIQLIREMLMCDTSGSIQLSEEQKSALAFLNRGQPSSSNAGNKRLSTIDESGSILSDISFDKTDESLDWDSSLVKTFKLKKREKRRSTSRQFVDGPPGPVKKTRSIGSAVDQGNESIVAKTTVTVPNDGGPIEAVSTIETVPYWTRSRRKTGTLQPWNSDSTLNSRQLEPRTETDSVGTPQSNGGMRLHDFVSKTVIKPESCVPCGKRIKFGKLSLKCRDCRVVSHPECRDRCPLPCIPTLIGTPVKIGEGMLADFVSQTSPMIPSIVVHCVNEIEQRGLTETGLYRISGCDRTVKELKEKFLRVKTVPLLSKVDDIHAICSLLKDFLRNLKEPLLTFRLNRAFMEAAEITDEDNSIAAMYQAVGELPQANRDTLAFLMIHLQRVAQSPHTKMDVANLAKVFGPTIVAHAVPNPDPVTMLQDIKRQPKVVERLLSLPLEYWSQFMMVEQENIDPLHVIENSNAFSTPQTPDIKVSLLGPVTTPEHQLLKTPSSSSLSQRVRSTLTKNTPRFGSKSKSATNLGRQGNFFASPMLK
Kind of assay: MgcRacGAP GTPase-activating activity inhibitors, confirmation, biochemical, ADP Hunter fluorescence, primary and confirmatory (AID 624330). Format: functional.

For assay [10], the target named is Melanin-concentrating hormone receptor 1 (Homo sapiens, UniProt Q99705). Briefly: Late-stage fluorescence-based counterscreen for antagonists of the G-protein coupled receptor 7 (GPR7): cell-based dose response assay to identify antagonists of the melanin-concentrating hormone receptor 1 (MCHR1) Set 5. Format: functional.
For assay [11], the target named is T2, Neuropeptides B/W receptor type 1 (Homo sapiens, UniProt P48145).
T2 sequence (P48145 whole entry): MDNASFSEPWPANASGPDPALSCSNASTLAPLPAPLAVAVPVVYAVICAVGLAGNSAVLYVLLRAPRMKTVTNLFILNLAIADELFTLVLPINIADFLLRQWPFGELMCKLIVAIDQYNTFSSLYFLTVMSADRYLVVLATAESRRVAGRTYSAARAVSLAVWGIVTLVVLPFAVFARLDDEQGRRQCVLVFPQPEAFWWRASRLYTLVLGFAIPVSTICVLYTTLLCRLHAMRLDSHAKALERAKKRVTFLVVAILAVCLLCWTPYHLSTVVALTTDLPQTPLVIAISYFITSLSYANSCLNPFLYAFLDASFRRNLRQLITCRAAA
Briefly: GPR7 antagonist potency, late-stage follow-up, cell-based, fluorescence, dose response, set 5 (AID 588566). Format: functional.

Assay [12] has as its target Casein kinase II subunit alpha (Homo sapiens, UniProt P68400). Format: functional.
Assay [13] concerns the target Homeodomain-interacting protein kinase 2 (Homo sapiens, UniProt Q9H2X6). Format: functional.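 Note: measured within a kinome-wide kinase profiling panel, HIPK2 being one panel member.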
For assay [14], the target named is Calcium/calmodulin-dependent protein kinase type II subunit alpha (Homo sapiens, UniProt Q9UQM7). Briefly: Navigating the Kinome. Panel member name: CAMK2A. In kind it is functional.
Assay [15] has as its target Vascular endothelial growth factor receptor 1 (Homo sapiens, UniProt P17948). Format: functional.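 Note: measured within a kinome-wide profiling panel, FLT1 as the panel member.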
Assay [16] addresses Vascular endothelial growth factor receptor 3 (Homo sapiens, UniProt P35916). In kind it is functional.
In assay [17] the target is Leukocyte tyrosine kinase receptor (Homo sapiens, UniProt P29376). Briefly: Navigating the Kinome. Panel member name: LTK. Format: functional.
Chain of Leukocyte tyrosine kinase receptor (P29376 whole entry): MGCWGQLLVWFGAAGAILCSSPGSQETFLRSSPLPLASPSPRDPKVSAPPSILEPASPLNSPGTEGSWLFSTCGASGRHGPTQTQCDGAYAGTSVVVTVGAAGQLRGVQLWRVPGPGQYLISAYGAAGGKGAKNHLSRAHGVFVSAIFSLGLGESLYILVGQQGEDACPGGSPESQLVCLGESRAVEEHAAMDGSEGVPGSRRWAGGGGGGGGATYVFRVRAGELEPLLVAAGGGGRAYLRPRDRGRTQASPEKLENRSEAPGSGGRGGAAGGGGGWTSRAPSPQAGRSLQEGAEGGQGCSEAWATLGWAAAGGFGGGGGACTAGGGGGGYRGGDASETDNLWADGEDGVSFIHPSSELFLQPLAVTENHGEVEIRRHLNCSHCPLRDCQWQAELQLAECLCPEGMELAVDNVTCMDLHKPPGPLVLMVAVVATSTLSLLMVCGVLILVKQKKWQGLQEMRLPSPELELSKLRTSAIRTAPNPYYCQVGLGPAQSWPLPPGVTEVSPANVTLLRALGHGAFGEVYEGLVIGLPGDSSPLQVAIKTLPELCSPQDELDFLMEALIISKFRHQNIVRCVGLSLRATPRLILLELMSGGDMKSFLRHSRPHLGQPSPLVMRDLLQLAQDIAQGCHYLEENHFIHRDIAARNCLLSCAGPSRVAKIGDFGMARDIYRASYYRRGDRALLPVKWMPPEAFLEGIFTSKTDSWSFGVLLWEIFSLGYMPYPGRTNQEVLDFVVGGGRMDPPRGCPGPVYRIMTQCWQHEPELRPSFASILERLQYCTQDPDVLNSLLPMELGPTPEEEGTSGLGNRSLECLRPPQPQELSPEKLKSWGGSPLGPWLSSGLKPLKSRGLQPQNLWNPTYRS
Assay [18] addresses Tyrosine-protein kinase JAK3 (Homo sapiens, UniProt P52333). Format: functional.
For assay [19], the target named is Dual specificity tyrosine-phosphorylation-regulated kinase 1B (Homo sapiens, UniProt Q9Y463). Kind of assay: Navigating the Kinome. Panel member name: DYRK1B. In kind it is functional.
Chain of Dual specificity tyrosine-phosphorylation-regulated kinase 1B (Q9Y463 whole entry): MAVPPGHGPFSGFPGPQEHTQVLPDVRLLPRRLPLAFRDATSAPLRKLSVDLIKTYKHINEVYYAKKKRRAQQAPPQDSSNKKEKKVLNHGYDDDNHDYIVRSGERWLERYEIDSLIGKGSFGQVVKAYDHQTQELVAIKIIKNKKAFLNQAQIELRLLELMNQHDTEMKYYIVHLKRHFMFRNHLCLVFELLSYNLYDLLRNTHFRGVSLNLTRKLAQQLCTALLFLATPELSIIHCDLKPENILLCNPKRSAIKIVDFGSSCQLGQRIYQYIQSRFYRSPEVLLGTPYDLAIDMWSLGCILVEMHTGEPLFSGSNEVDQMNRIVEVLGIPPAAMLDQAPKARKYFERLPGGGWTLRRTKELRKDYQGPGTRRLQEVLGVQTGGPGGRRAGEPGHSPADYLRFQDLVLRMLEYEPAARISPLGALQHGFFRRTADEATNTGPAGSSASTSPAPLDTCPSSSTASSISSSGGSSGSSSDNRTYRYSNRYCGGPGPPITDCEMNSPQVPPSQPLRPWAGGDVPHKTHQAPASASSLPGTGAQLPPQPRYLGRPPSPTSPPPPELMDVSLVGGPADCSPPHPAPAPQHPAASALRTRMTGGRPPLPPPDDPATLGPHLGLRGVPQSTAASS
Assay [20] addresses Death-associated protein kinase 3 (Homo sapiens, UniProt O43293). In kind it is functional.
Assay [21] has as its target Tyrosine-protein kinase receptor UFO (Homo sapiens, UniProt P30530). In kind it is functional.
In assay [22] the target is Tyrosine-protein kinase Blk (Homo sapiens, UniProt P51451). Format: functional.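 Note: obtained as one member of a kinome-wide kinase assay panel.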
For assay [23], the target named is Fibroblast growth factor receptor 3 (Homo sapiens, UniProt P22607). Format: functional.
For assay [24], the target named is Macrophage colony-stimulating factor 1 receptor (Homo sapiens, UniProt P07333). In kind it is functional.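 Note: value comes from the Navigating the Kinome screening panel, CSF1R member.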
Chain of Macrophage colony-stimulating factor 1 receptor (P07333 whole entry): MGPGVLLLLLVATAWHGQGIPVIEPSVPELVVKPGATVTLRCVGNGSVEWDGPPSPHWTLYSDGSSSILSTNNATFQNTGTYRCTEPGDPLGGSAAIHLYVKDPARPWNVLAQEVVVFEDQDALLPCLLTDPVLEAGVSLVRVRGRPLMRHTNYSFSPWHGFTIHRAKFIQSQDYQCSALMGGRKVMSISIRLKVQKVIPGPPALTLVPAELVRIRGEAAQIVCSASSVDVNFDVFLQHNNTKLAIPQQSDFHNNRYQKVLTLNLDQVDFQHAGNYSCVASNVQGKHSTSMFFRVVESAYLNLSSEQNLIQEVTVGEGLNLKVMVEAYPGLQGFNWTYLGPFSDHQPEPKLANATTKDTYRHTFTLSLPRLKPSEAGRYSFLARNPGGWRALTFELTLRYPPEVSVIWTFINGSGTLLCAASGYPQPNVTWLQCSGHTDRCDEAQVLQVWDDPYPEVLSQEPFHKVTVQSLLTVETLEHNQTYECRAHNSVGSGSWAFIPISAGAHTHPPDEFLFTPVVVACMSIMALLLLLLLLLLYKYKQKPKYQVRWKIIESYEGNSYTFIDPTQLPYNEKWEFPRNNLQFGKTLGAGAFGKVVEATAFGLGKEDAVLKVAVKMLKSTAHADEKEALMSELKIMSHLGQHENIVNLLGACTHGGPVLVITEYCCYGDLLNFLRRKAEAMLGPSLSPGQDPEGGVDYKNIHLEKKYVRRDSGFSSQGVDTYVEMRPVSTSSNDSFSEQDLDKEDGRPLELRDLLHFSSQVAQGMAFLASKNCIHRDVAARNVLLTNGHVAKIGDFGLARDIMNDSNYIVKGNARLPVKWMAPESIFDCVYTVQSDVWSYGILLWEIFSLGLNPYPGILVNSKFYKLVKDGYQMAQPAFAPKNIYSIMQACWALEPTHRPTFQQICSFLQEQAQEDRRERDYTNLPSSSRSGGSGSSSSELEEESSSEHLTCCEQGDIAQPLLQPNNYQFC
Assay [25] addresses G protein-coupled receptor kinase 5 (Homo sapiens, UniProt P34947). Kind of assay: Navigating the Kinome. Panel member name: GPRK5. In kind it is functional.
Assay [26] concerns the target Homeodomain-interacting protein kinase 4 (Homo sapiens, UniProt Q8NE63). In kind it is functional.
The target in assay [27] is Mast/stem cell growth factor receptor Kit (Homo sapiens, UniProt P10721). Format: functional.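 Note: KIT entry within a kinase panel assay.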
Assay [28] deals with Leucine-rich repeat serine/threonine-protein kinase 2 (Homo sapiens, UniProt Q5S007). In kind it is functional.
Assay [29] concerns the target Vascular endothelial growth factor receptor 2 (Homo sapiens, UniProt P35968). Format: functional.
Assay [30] deals with Protein kinase C gamma type (Homo sapiens, UniProt P05129). Format: functional.
The target in assay [31] is Platelet-derived growth factor receptor alpha (Homo sapiens, UniProt P16234). Briefly: Navigating the Kinome. Panel member name: PDGFRA. Format: functional.
Assay [32] concerns the target Serine/threonine-protein kinase 17A (Homo sapiens, UniProt Q9UEE5). Format: functional.
Assay [33] concerns the target Tyrosine-protein kinase JAK2 (Homo sapiens, UniProt O60674). In kind it is functional.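 Note: JAK2 tested as one member of a kinase panel.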
Assay [34] deals with Cyclin-dependent kinase 8 (Homo sapiens, UniProt P49336). Kind of assay: Navigating the Kinome. Panel member name: CDK8. In kind it is functional.
Chain of Cyclin-dependent kinase 8 (P49336 whole entry): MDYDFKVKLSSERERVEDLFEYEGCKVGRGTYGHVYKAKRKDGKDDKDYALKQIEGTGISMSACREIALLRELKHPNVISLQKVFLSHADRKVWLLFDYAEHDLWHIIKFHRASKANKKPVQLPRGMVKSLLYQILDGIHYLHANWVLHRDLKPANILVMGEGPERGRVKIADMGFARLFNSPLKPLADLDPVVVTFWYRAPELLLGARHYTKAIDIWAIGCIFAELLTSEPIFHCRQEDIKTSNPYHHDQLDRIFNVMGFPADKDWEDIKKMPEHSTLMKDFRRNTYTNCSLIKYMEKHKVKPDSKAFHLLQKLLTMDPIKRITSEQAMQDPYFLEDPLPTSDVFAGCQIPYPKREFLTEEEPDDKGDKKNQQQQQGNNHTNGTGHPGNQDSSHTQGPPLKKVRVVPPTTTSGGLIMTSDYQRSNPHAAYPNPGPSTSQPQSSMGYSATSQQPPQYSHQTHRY
Assay [35] deals with Tyrosine-protein kinase receptor TYRO3 (Homo sapiens, UniProt Q06418). In kind it is functional.

The source of these data is ChEMBL document CHEMBL1201862, “PubChem BioAssay data set” (2004).

Calls of active or inactive are those of the source.

Chain of G protein-coupled receptor kinase 5 (P34947 whole entry): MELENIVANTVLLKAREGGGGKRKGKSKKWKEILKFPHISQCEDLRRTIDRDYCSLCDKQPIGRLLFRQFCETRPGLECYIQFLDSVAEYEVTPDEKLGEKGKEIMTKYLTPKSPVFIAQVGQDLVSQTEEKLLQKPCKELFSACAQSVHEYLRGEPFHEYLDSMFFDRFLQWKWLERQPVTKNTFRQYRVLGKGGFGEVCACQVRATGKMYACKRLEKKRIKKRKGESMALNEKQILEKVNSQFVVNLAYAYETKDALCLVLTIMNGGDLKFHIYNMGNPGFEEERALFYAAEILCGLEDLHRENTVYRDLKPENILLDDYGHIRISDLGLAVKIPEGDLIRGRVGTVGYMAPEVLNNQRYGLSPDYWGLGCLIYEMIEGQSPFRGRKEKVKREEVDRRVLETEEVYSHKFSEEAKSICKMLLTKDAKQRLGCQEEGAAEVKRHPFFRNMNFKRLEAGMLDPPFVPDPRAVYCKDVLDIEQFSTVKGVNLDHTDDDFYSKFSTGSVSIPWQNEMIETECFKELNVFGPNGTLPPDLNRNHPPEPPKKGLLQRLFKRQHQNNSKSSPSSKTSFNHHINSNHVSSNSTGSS
Chain of Serine/threonine-protein kinase 17A (Q9UEE5 whole entry): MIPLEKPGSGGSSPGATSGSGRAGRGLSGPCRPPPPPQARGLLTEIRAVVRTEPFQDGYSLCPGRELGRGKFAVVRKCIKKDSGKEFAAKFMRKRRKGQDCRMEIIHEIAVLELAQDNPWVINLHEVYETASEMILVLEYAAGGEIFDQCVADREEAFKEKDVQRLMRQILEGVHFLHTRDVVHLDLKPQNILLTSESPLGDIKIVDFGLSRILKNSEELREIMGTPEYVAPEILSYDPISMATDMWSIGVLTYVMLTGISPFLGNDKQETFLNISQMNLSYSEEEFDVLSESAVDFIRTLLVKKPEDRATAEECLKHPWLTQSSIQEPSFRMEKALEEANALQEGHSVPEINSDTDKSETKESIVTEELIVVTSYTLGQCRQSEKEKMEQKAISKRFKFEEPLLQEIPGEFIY
Chain of Dual specificity protein kinase CLK1 (P49759 whole entry): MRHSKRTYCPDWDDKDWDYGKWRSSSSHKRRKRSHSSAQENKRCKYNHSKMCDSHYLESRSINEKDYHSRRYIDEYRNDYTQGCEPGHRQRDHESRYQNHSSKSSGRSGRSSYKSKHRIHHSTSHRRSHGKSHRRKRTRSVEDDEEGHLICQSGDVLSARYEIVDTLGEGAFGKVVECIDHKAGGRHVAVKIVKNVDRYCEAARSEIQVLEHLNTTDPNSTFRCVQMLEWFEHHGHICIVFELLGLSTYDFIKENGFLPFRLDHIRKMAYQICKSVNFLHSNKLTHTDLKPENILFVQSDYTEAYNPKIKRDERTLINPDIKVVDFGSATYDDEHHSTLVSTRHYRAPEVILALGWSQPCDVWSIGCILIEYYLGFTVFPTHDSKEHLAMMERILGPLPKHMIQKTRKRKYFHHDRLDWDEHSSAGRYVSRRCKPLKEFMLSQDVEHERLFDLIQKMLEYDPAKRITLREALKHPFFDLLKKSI
Chain of Cyclin-dependent kinase 5/CDK5 activator 1 (Q00535 whole entry): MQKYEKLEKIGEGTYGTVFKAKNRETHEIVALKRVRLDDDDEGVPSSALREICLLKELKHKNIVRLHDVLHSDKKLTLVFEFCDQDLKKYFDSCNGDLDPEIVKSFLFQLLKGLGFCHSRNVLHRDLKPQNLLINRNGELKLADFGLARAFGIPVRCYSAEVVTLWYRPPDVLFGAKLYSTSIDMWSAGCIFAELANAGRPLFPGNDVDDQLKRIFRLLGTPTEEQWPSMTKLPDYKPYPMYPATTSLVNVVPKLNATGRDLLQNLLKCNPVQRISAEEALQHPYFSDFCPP
Chain of Cyclin-dependent kinase 5/CDK5 activator 1 (Q15078 whole entry, further chain): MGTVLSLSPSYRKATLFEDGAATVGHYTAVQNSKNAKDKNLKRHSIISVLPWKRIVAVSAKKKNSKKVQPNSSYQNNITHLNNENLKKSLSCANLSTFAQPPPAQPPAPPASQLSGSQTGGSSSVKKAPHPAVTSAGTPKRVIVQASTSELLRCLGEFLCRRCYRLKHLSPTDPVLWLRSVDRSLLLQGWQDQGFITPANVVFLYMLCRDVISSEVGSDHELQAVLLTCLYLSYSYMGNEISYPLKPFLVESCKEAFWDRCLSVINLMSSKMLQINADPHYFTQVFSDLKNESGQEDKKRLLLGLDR

For `COc1cccc(Nc2nc(-c3ccc(O)cc3)cs2)c1`, the AC50 in assay [1] is 7.47 µM (active); in assay [2], 2.8 µM (active); with HeLa, 54.8 µM (active); in assay [4], 8.21 µM (active); in [5] it was 19.6 µM (active); in [6] it was 10.2 µM (active). Moreover, the figures for the AC50 in assay [7] and in assay [8] were 34.7 µM (active) and 33 µM (active), respectively. Moreover, the CC50 in [3] was 100 µM (active). Moreover, in [9], the IC50 is 66.1 µM (active).

As for `COc1ccc(Oc2c(Cl)cnn(CC(=O)c3ccc(Cl)cc3Cl)c2=O)cc1`, the values for the IC50 in assay [10] and in [11] were 5.47 µM (active) and 1.85 µM (active), respectively.

Regarding `CN1CCN(c2ccc(C(=O)Nc3n[nH]c4ccc(Cc5cc(F)cc(F)c5)cc34)c(NC3CCOCC3)c2)CC1` [ENTRECTINIB], the Ki in assay [12] is > 6.31 µM (inactive); in [13], 1.58 µM (active); in [14], > 3.98 µM (inactive); in assay [15], 0.794 µM (active); in assay [16] it was 0.2 µM (active); in assay [17], 0.00158 µM (active). In addition, the Ki is 0.501 µM (active) in [18]; > 2.51 µM (inactive) in assay [19]; 2.51 µM (active) in assay [20]; 0.0398 µM (active) in assay [21]; 0.2 µM (active) in [22]; 0.158 µM (active) in [23]. For the same compound, the Ki in assay [24] is 0.0398 µM (active); in assay [25] it was 2.51 µM (active); in assay [26], > 7.94 µM (inactive); in assay [27], 0.158 µM (active); in assay [28], 2.51 µM (active); in assay [29], 0.398 µM (active). For the same compound, the Ki in assay [30] was 0.631 µM (active); in assay [31], > 2.51 µM (inactive); in [32] it was > 3.16 µM (inactive); in assay [33], 0.02 µM (active); in assay [34], > 3.98 µM (inactive); in assay [35], > 3.16 µM (inactive).
